Source: US3939150A, “Penicillin derivatives” (priority 1973, dated 1976)
Structures can show the parent of a compound that is named as a salt.

Experiments:
[1] = system: Pseudomonas aeruginosa 35 strain; experiment: MIC distribution, clinical isolated strains; type: cell-based; details: of 35 strains
From the text: (Pseudomonas aeruginosa 35 strain)
(§1) It is clear from the results shown in the above tables, as regards the antibacterial activities against clinical isolated strains, the compounds of this invention show quite high activity against not only Pseudomonas aeruginosa but also against Klebsiella as compared with carbenicillin

[2] = system: Escherichia coli 31 strain; experiment: MIC distribution, clinical isolated strains; type: cell-based; details: of 31 strains
From the text: (Escherichia coli 31 strain)
as §1

[3] = system: Klebsiella 78 strain; experiment: MIC distribution, clinical isolated strains; type: cell-based; details: of 78 strains; for number of strains with MIC 100: MIC 100 μ/ml
From the text: as §1

[4] = system: Pseudomonas aeruginosa NC-5 strain; experiment: Protective effect against experimentally infected mice, one subcutaneous administration; type: in vivo, mice infected with Pseudomonas aeruginosa; details: s.c. once
From the text: a. Mice (one group included five mice) were infected with pseudomonas aeruginosa NC-5 strain the intraperitoneal route and a solution prepared by dissolving the test antibiotics in sterilized distilled water was once administered by subcutaneous injection immediately after challenge of the test organism and then the numbers of living mice were inspected. […] (The figures shown in Tables VII-IX have the same meaning).

[5] = system: Pseudomonas aeruginosa NC-5 strain; experiment: Protective effect against experimentally infected mice, three subcutaneous administrations; type: in vivo, mice infected with Pseudomonas aeruginosa; details: s.c.
Protocol: b. Mice (one group included five mice) were infected with pseudomonas aeruginosa NC-5 strain via intraperitoneal route and a solution prepared by dissolving the test substance in sterilized distilled water was administered by subcutaneous injection three times, i. e., immediately after challenge of the test organism, after 2 hours, and after 4 hours.

[6] = system: Pseudomonas aeruginosa NC-5 strain; experiment: Protective effect against experimentally infected mice, two oral administrations; type: in vivo, mice infected with Pseudomonas aeruginosa
Protocol: c. Mice (one group included five mice) were infected with Pseudomonas aeruginosa NC-5 strain via the intraperitoneal route and the test substance was orally administered twice, i. e., immediately after challenge of the test organism and after 2 hours.

[7] = system: Proteus mirabilis 1287 strain; experiment: Protective effect against experimentally infected mice, one subcutaneous administration; type: in vivo, mice infected with Proteus mirabilis; details: s.c. once, 2 hours after challenge
Protocol: d. Mice (one group included five mice) were infected with Proteus mirabilis 1287 strain via the intraperitoneal route and a solution prepared by dissolving the test antiobiotics in sterilized distilled water was once administered by subcutaneous injection 2 hours after of challenge of the test organism.

[8] = system: male dd-N mice; experiment: Acute toxicity (minimum lethal dose); type: in vivo
From the text: a. The minimum lethal doses (MLD) when the compound of this invention was intravenously and subcutaneously administered to male dd-N mice are shown in Table X.

[9] = system: male Sprague-Dawley rats; experiment: Nephrotoxicity after 1 week subcutaneous injection; type: in vivo; details: 1000 mg/Kg/day sc, 7 days
Protocol: b. Test antibiotics were administered to male Sprague-Dawley rats by subcutaneous injection daily for 7 days. After seven days, animals were sacrificed and estimated for organ weight and serum urea-nitrogen including visual studies of kidney.

[10] = system: male Sprague-Dawley rats; experiment: Acute nephrotoxicity in combination with glycerol and furocemide in rats; type: in vivo; details: 1000 mg/Kg s.c.; with glycerol 4 ml/Kg of 50% and furocemide 50 mg/Kg s.c.; 48 hours
Protocol: c. Glycerol (50%, 4 ml/kg), furocemide (50 mg/kg) and test actibiotics were injected subcutaneously in male Sprague-Dawley rats. […] Animals of each group were sacrificed 48 hours later to estimate serum urea-nitrogen values.

[11] = Water solubility and pH of aqueous solution; type: physicochemical; details: 250 mg/ml in water
Protocol: As the compounds of this invention are easily soluble in water, the compound can be clinically used as an agent for parenteral administration such as an agent for intravenous injection and an agent for intramuscular injection. For example, when sodium D(-)-6-[α-(p-hydroxyphenyl)-α-(4-oxo-4H-thiopyran-3-yl-carboxanido acetamido]penicillanate is dissolved in water, the pH of the solution is about 5.8 (250 mg/ml).

[12] = Stability of di-hydrate; type: physicochemical
From the text: In addition, if the water-containing organic solvent solution keeps up its homogeneity, an organic solvent immiscible with water such as methylene chloride, chloroform, etc., may be added to the solution.

CC1(C)S[C@@H]2[C@H](NC(=O)[C@H](NC(=O)c3csccc3=O)c3ccc(O)cc3)C(=O)N2[C@H]1C(=O)O [Example 3, α-(4-oxo-4H-thiopyran-3-carboxamido)-p-hydroxybenzylpenicillin sodium salt]
number of strains with MIC 1.56 ([1]; MIC 1.56 μ/ml): 2
number of strains with MIC […] ([1]; MIC 3.13 μ/ml): 5
number of strains with MIC […] ([1]; MIC 6.25 μ/ml): 6
number of strains with MIC 12.5 ([1]; MIC 12.5 μ/ml): 6
number of strains with MIC 25 ([1]; MIC 25 μ/ml): 2
number of strains with MIC 50 ([1]; MIC 50 μ/ml): 5
number of strains with MIC 100 ([1]; MIC 100 μ/ml): 2
number of strains with MIC >100 ([1]; MIC >100 μ/ml): 7
number of strains with MIC 1.56 ([2]; MIC 1.56 μ/ml): 2
number of strains with MIC […] ([2]; MIC 3.13 μ/ml): 1
number of strains with MIC […] ([2]; MIC 6.25 μ/ml): 8
number of strains with MIC 12.5 ([2]; MIC 12.5 μ/ml): 9
number of strains with MIC 25 ([2]; MIC 25 μ/ml): 2
number of strains with MIC 50 ([2]; MIC 50 μ/ml): 0
number of strains with MIC 100 ([2]; MIC 100 μ/ml): 0
number of strains with MIC >100 ([2]; MIC >100 μ/ml): 9
number of strains with MIC 1.56 ([3]; MIC 1.56 μ/ml): 0
number of strains with MIC […] ([3]; MIC 3.13 μ/ml): 0
number of strains with MIC […] ([3]; MIC 6.25 μ/ml): 2
number of strains with MIC 12.5 ([3]; MIC 12.5 μ/ml): 17
number of strains with MIC 25 ([3]; MIC 25 μ/ml): 30
number of strains with MIC 50 ([3]; MIC 50 μ/ml): 1
number of strains with MIC 100 ([3]; first column headed 100): 1
number of strains with MIC 100 ([3]; second column headed 100): 7
number of strains with MIC 400 ([3]; MIC 400 μ/ml): 4
number of strains with MIC >400 ([3]; MIC >400 μ/ml): 16
number of living mice / number of mice inspected ([4]; 15 mg): 2/5
number of living mice / number of mice inspected ([4]; 30 mg): 3/5
number of living mice / number of mice inspected ([4]; 60 mg): 5/5
number of living mice / number of mice inspected ([5]; 2.5 × 3 mg): 5/5
number of living mice / number of mice inspected ([5]; 5 × 3 mg): 5/5
number of living mice / number of mice inspected ([5]; 10 × 3 mg): 5/5
number of living mice / number of mice inspected ([6]; 25 × 2 mg): 2/5
number of living mice / number of mice inspected ([6]; 50 × 2 mg): 3/5
number of living mice / number of mice inspected ([6]; 100 × 2 mg): 5/5
number of living mice / number of mice inspected ([7]; 1.25 mg): 1/5
number of living mice / number of mice inspected ([7]; 2.5 mg): 2/5
number of living mice / number of mice inspected ([7]; 5 mg): 4/5
number of living mice / number of mice inspected ([7]; 10 mg): 3/5
MLD ([8]; i.v.): 3.5 g/kg
MLD ([8]; s.c.): 7.0 g/kg
Kidney weights [9]: 2.30 g
Serum urea-N [9]: 20.3 mg/dL
Serum urea nitrogen [10]: 23.3 ± 2.5 mg/dL
pH of the solution [11]: about 5.8

CC1(C)S[C@@H]2[C@H](NC(=O)[C@H](NC(=O)c3csccc3=O)c3ccc(O)cc3)C(=O)N2[C@H]1C(=O)O [Example 27, D(-)-6-[p-hydroxy-phenyl-α-(4-oxo-4H-thiopyran-3-ylcarboxamido)acetamido]penicillanic acid di-hydrate]
stability [12]: pure and stable
